Among the data in PubChem BioAssay (NCI) are TGI values, retold here.

Holding throughout (assay): DTP human tumour cell line panel, 48 h
Test [1] concerns OVCAR-8 ovarian.
Test [2] relates to OVCAR-3 ovarian.
For test [3], the system named is UO-31 renal.
The subject of test [4] is HCC-2998 colon.
Test [5] deals with KM12 colon.
Test [6] deals with OVCAR-4 ovarian.
In test [7] the test system is A549 NSCLC.
The test system of test [8] is HCT-15 colon.
The subject of test [9] is CAKI-1 renal.
Test [10] has as its system LOX IMVI melanoma.
Test [11] concerns MOLT-4 leukemia.
The subject of test [12] is SNB-19 CNS.
Test [13] has as its system PC-3 prostate.
For test [14], the system named is EKVX NSCLC.
For test [15], the system named is NCI-H23 lung.
The subject of test [16] is T-47D breast.
The subject of test [17] is SF-295 CNS.
In test [18] the test system is SK-OV-3 ovarian.
The test system of test [19] is TK-10 renal.
Test [20] concerns SF-539 CNS.

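Compound exposure: 48 hours, 5 concentrations, 96-well plates. The concentration for full growth arrest is given as TGI.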

As usually defined, the TGI is the concentration giving total growth inhibition. A lower TGI goes with more potent growth arrest.

`Nc1nc(NCC2(CO)CC(CCc3ccccc3)C2)cc(=O)[nH]1` (configuration not stated): the total growth inhibition concentration (TGI) was over 100 µM in test [1]; over 100 µM in test [2]; 67.8 µM in test [3]; over 100 µM in test [4]; over 100 µM in test [5]; over 100 µM in test [6]. Besides, the TGI in test [7], in test [8], in test [9], in [10], in test [11] and in [12] was over 100 µM throughout. Moreover, the TGI was over 100 µM in [13]; over 100 µM in test [14]; over 100 µM in test [15]; over 100 µM in test [16]; over 100 µM in test [17]; 80.6 µM in test [18].

For the compound `COC(=O)c1cn(CCCCO)nn1`, the total growth inhibition concentration (TGI) in test [1], in [19], in test [3], in [4], in test [5] and in test [6] was over 100 µM in each case. The concentration for total growth inhibition (TGI) in [7], in [8], in test [9], in test [10], in [11] and in test [12] was over 100 µM throughout. For the same compound, the TGI in [13], in [14], in test [15], in test [20], in [16] and in test [17] was over 100 µM each time.

Consider `O=C1C=C(NCCc2cc(Cl)c(O)c(Cl)c2)C(=O)c2[nH]cnc21`, for which the TGI is over 100 µM in test [1]; over 100 µM in test [19]; 47.2 µM in test [2]; over 100 µM in [3]; over 100 µM in test [4]; over 100 µM in test [5]. The total growth inhibition concentration (TGI) in test [7] is over 100 µM; in [8], over 100 µM; in test [10], over 100 µM; in test [11], 67.5 µM; in test [12] it was over 100 µM; in test [13], over 100 µM. The TGI in test [14] was over 100 µM; in [15], 36.8 µM; in test [20], over 100 µM; in test [16], 53.2 µM; in test [17] it was 45.6 µM.

As to `CCN(CC)C(=O)N[C@@H](Cc1ccccc1)C(=O)NC`, the TGI in test [1], in test [2], in test [3], in test [4], in test [5] and in test [6] was over 100 µM throughout. For the same compound, the TGI in test [7], in test [8], in test [9], in test [10], in test [11] and in test [12] was over 100 µM in each case. Also, the TGI in test [13], in test [14], in test [15], in test [16], in test [17] and in [18] was over 100 µM in each case.

For the compound `N#Cc1c(-c2ccccc2)c(C#N)c(=S)n(C2OCC(O)C(O)C2O)c1N` (configuration not stated), the total growth inhibition concentration (TGI) in [1], in test [19], in test [2], in test [3], in [4] and in test [5] was over 100 µM each time. The concentration for total growth inhibition (TGI) in test [7], in [8], in [9], in [10], in test [11] and in test [12] was over 100 µM throughout. Also, the TGI in test [13], in test [15], in [20], in test [16], in [17] and in test [18] was over 100 µM throughout.

For the compound `Cc1ccc(-c2n[nH]c(=O)n2N2C(=O)C=CC2=O)cc1`, the TGI in test [1], in test [19], in [2], in test [4], in test [6] and in test [7] was over 100 µM each time. Further, the concentration for total growth inhibition (TGI) in test [8], in [9], in test [11], in [13], in [14] and in test [15] was over 100 µM throughout. In addition, the TGI in test [20], in test [16], in test [17] and in test [18] was over 100 µM in each case.

In the case of `N#CC1C(=O)NC2=C(CCOc3c2ccc2ccccc32)C1c1ccc(F)cc1` (configuration not stated), the TGI was over 100 µM in test [1]; 43.2 µM in test [19]; 40.7 µM in [2]; 24.7 µM in test [3]; 59.9 µM in test [4]; over 100 µM in test [5]. Besides, the total growth inhibition concentration (TGI) in [6] was over 100 µM; in test [7] it was over 100 µM; in test [8] it was over 100 µM; in [9], 71.4 µM; in test [11], over 100 µM; in [12], 52.7 µM. Further, the TGI in test [13] was 54.8 µM; in test [14], over 100 µM; in test [15] it was 74 µM; in [20], over 100 µM; in test [16], 99.5 µM; in test [17] it was 42.4 µM. Also, the TGI in test [18] came to 55 µM.

Regarding `CC(=O)OC(C#N)CC(C)(C)/[N+]([O-])=[N+](\[O-])C(C)(C)CC(C#N)OC(C)=O` (configuration not stated), the concentration for total growth inhibition (TGI) came out at 73.3 µM in [1]; 31.2 µM in test [19]; 40 µM in test [2]; 63.6 µM in test [3]; 31.6 µM in test [4]; 28.9 µM in test [5]. Moreover, the concentration for total growth inhibition (TGI) in [6] is 33.9 µM; in [7], over 100 µM; in test [8], 25.5 µM; in test [9], 30.7 µM; in [10] it was 28.8 µM; in [11], 26.3 µM. Further, the TGI in test [12] was determined as 67.6 µM; in [13], 37.9 µM; in test [14], 39.7 µM; in test [15], 34 µM; in [16] it was 50.2 µM; in [17] it was 80.8 µM. The TGI in test [18] is over 100 µM.

Turning to `COC(=O)CCSC1=CC(=O)c2nc3ccccc3c3ccnc1c23`, the concentration for total growth inhibition (TGI) in test [1] is over 56.3 µM; in test [19] it was 18.9 µM; in [2], 11.4 µM; in test [3], 31.7 µM; in test [4] it was 27.6 µM; in test [5] it was 34.8 µM. Also, the TGI in test [6] is 41.9 µM; in [7] it was over 100 µM; in [8], 27.9 µM; in [9], 42.5 µM; in [11] it was 50.4 µM; in test [12], over 100 µM. The TGI in test [13] is 36.7 µM; in test [14] it was 40.7 µM; in test [15], 32 µM; in test [20], 29.8 µM; in [16] it was 44.1 µM; in test [17], over 100 µM. For the same compound, the TGI in test [18] is over 100 µM.

On to `COc1ccc(/C(Cl)=C(\CNc2ccccn2)c2ccccc2)cc1OC`, for which the total growth inhibition concentration (TGI) in test [1], in [19], in [3], in test [4], in test [5] and in test [6] was over 100 µM in each case. Moreover, the TGI in [7], in [8], in [9], in test [10], in [11] and in test [12] was over 100 µM in each case. Also, the concentration for total growth inhibition (TGI) in test [13], in test [14], in [15], in test [20], in test [16] and in [17] was over 100 µM in each case. The TGI in [18] is over 100 µM.

For `Cc1ccc(Cc2nn(C)c(=O)n2-n2cccc2)cc1`, the concentration for total growth inhibition (TGI) in [1], in test [19], in test [2], in test [3], in test [4] and in test [5] was over 100 µM throughout. For the same compound, the TGI in test [6], in [7], in test [8], in test [9], in [10] and in test [11] was over 100 µM throughout. The TGI in test [12], in test [13], in [14], in test [16], in test [17] and in test [18] was over 100 µM throughout.

`Cc1cccc(Nc2nc(NNC(=O)Cc3ccccc3)nc(NNC(=O)c3ccncc3)n2)c1`: the TGI in [1], in [19], in test [3], in test [4], in [5] and in test [6] was over 10 µM in each case. The TGI in [7], in [8], in test [9], in test [10], in [11] and in test [12] was over 10 µM in each case. Besides, the TGI in test [13], in test [14], in [15], in test [20], in [16] and in test [17] was over 10 µM in each case. The concentration for total growth inhibition (TGI) in test [18] is over 10 µM.

Consider `CN(C)C(=O)C(F)(F)C(c1ccc(C(F)(F)F)cc1)C1C(=O)N(C)C(=O)N(C)C1=O` (configuration not stated), for which the TGI in [19], in [2], in test [3], in test [4], in test [5] and in [6] was over 100 µM in each case. The TGI in test [7], in test [8], in test [9], in test [10], in [12] and in test [13] was over 100 µM throughout. Further, the total growth inhibition concentration (TGI) in [14], in [15], in test [16], in test [17] and in test [18] was over 100 µM in each case.

For `CN(C)C=Nc1c(Br)cc(Br)c2nonc12`, the total growth inhibition concentration (TGI) in [1], in test [19], in [2], in [3], in [4] and in [5] was over 100 µM throughout. Also, the TGI in test [6], in test [7], in test [8], in test [9], in test [11] and in test [12] was over 100 µM each time. Also, the TGI in test [13], in test [14], in [15], in test [20], in test [16] and in test [17] was over 100 µM each time. The concentration for total growth inhibition (TGI) in test [18] is over 100 µM.

On to `COc1ccc2[nH]cc(CN3CCC(CO)(c4ccccc4)CC3)c2c1`, for which the concentration for total growth inhibition (TGI) in [1] is over 100 µM; in [19] it was over 100 µM; in [2], over 100 µM; in test [3] it was 72.2 µM; in [4] it was 46.2 µM; in test [5] it was 35.4 µM. Moreover, the TGI in test [6] was over 100 µM; in test [7] it was 57.3 µM; in [8] it was over 100 µM; in test [10] it was 37 µM; in test [11] it was 56.9 µM; in test [12], over 100 µM. For the same compound, the total growth inhibition concentration (TGI) in test [13] was over 100 µM; in test [14], 24 µM; in [15], over 100 µM; in [16], 46.5 µM; in test [17] it was 39.8 µM; in test [18], over 100 µM.
